{"source": "patent US4118506A", "about": "“Pharmaceutical compositions containing 1,3-dithiol-2-ylidene malonate derivatives” (Nihon Nohyaku Co., Ltd., priority 1976, dated 1978)", "key": {"[1]": {"tested_on": "acute liver damage induced by allyl alcohol", "assay": "protective effect on acute liver damage associated with periportal necrosis, allyl alcohol model", "assay_type": "in vivo, mouse (dd strain)", "details": "250 mg/kg oral 6 h before allyl alcohol 0.075 ml/kg oral; 24 h after", "description": "The compound of this invention or anethol trithion was orally administered to the male mouse (4 week/old, dd strain) at the dose of 250 mg/kg. Six hours after it, allyl alcohol was orally administered at the dose of 0.075 ml/kg. Twenty four hours after it, the animals were sacrificed to collect blood samples."}, "[2]": {"tested_on": "acute liver damage induced by bromobenzene", "assay": "protective effect on acute liver damage associated with centrilobular necrosis, bromobenzene model", "assay_type": "in vivo, rat (SD)", "description": "(§1) Bromobenzene (hereinafter abbreviated as BB), Dimethylnitrosamine (hereinafter abbreviated as DMN) and chloroform (hereinafter abbreviated as CF) resemble carbon tetrachloride in inducing liver damage associated with centrilobular necrosis.\n(§2) Test compound or anethol trithion was orally administered to animal at the dose of 100 mg/kg. Twenty four hours after it (in the case of dimethylnitrosamine, exceptionally fifteen hours after it) the animals were sacrificed and blood samples were collected. Indices of hepatotoxicity adoptable in each chemical were measured, from which the efficacy of the compound was evaluated.\nBB male rat 0.75 oral p-GPT activity"}, "[3]": {"tested_on": "bile flow and excretion of biliary salt", "assay": "cholagogic action: bile flow and biliary salt excretion", "assay_type": "in vivo, rat (SD-JCL strain)", "set-up": "key to excretion of biliary salt: relative to 1 h pre-drug amount taken as 100", "description": "The male rat (4 week-old, SD-JCL strain) was anesthetized with sodium pentobarbital (37.5 mg/kg, intraperitoneal injection). The abdominal cavity was opened through a midline incision. The common bile duct was catheterized with polyethylene tube o.d. 0.8 mm. The catheter was brought to the outside through the abdominal incision wound prior to closing. Bile was collected from the catheter continuously with time intervals of one hour. The quantity of bile produced in one hour was determined by weighing and that of biliary salt was determined by enzymatic method (Ikagaku Jikkenho Koza 1B, Biological Constituents II, edited by Tamino […]). The amount of biliary salts was represented as chloic acid equivalent. In the representation of the results, the quantities of bile and biliary salts produced in one hour prior to the administration of drug were taken as 100. […] As reference, anethol trithion was used."}, "[4]": {"tested_on": "acute liver damage induced by D-galactosamine", "assay": "protective effect on acute hepatitis with mesenchymal reaction and discrete lobular necrosis, D-galactosamine model", "assay_type": "in vivo, rat (SD strain)", "details": "250 mg/kg oral 6 h before D-galactosamine i.p.", "description": "D-Galactosamine is a compound which induces a discrete lobular necrosis associated with mesenchymal reaction similar to the change observed in human viral hepatitis, so that it is frequently used in producing a model for viral hepatitis.\nThe compound of this invention or anethol trithion was administered orally to the male rat (SD strain) at the dose of 250 mg/kg. Six hours after it, D-galactosamine was intraperitoneally administered at the dose of 600 mg/kg. Four hours after it, an additional 300 mg/kg was administered intraperitoneally. Eight hours after it, the animals were sacrificed to collect the blood samples. P-GPT activity and triglyceride in the liver were measured to evaluate the effect of the compound of this invention."}, "[5]": {"tested_on": "cirrhosis induced by carbon tetrachloride", "assay": "therapeutic effect on cirrhosis, carbon tetrachloride", "assay_type": "in vivo, rat (SD-strain)", "details": "therapeutic group, diet 2000 ppm", "source_text": "Almost all the liver diseases induced by various causes are considered to advance, finally, to cirrhosis. Cirrhosis is a final stage of liver damage, which is difficult to classify from the causal viewpoint. Usually, experimental cirrhosis is induced by long-term repeated administration of carbon tetrachloride. The therapeutic effect of the compounds of this invention on cirrhosis, which had been caused by carbon tetrachloride administration, was examined.\nA 10% solution of carbon tetrachloride in olive oil was administered to the male rat (4 week-old SD-strain) intraperitoneally at the dose of 0.5 ml carbon tetrachloride/kg twice a week over a period of 10 weeks, to induce cirrhosis. Four days after the final administration of carbon tetrachloride, the formation of pseudo-lobulus was confirmed. Then the diseased animals were divided into two groups. Therapeutic group was submitted a diet containing 2000 ppm of Compound 4, while the positive control group was submitted a normal diet. Control group, to which olive oil alone had been administered, was submitted a normal diet.\nAt 1, 2, 4 and 8 weeks after beginning of Compound 4 feeding, 5 animals from each group were sacrificed, and the therapeutic effect on cirrhosis was evaluated by examining plasma transaminase activity (p-GPT and p-GOT, Reitman-Frankel method) and observing histopathological changes.\nDegree of cirrhosis in the histopathological examination was graded as follows: […]"}, "[6]": {"tested_on": "acute liver damage induced by chloroform", "assay": "protective effect on acute liver damage associated with centrilobular necrosis, chloroform model", "assay_type": "in vivo, mouse (dd)", "details": "chloroform 0.2 ml/kg oral; 100 mg/kg oral 6 h before; 24 h after", "description": "as §1, §2\nCF male mouse 0.2 oral p-GPT activity"}, "[7]": {"tested_on": "fatty liver induced by carbon tetrachloride", "assay": "therapeutic effect on fatty liver, carbon tetrachloride model", "assay_type": "in vivo, rat (SD strain)", "description": "Carbon tetrachloride also induces fatty liver, but the picture of disease differs from the case of ethionine-induced fatty liver. Carbon tetrachloride is generally considered to damage microsome and thereby to inhibit protein synthesis and induce fatty liver.\nCarbon tetrachloride was subcutaneously administered to 36 week-old male rats (SD strain) for 4 days at the dose of 1 ml/kg. The treated animals were left for 3 days after the last administration to maximize the manifestation of fatty liver.\nAdministration of Compound 4 was commenced on the fourth day after the administration of carbon tetrachloride was completed. It was orally given everyday for 10 days at the dose of 50 or 250 mg/kg. On the 11th day, the animals were sacrificed by exsanguination. The therapeutic effect was evaluated by determining the content of lipid in the liver (triglyceride and total lipid) and examining the histopathological changes. Triglyceride and total lipid were determined colorimetrically by chromotropic acid method and Bragdon's oxidation method, respectively.\nIndices for the histopathological change is as follows: […]"}, "[8]": {"details": "bromobenzene 0.75 ml/kg oral, 100 mg/kg oral 6 h before, 24 h after"}, "[9]": {"details": "5 hours after administration, 200 mg/kg oral"}, "[10]": {"details": "50 mg/kg oral everyday for 10 days"}}, "data": [{"molecule": "CC(C)OC(=O)C(C(=O)OC(C)C)=C1SC=CS1", "note": "[Compound 4, diisopropyl 1,3-dithiol-2-ylidene malonate]", "values": [{"measurement": "BSP", "setting": "[1]", "result": "17 ± 3.2"}, {"measurement": "indices of hepatotoxicity", "setting": "[2]; BB, DMN and CF models together, Table 4", "result": "normalized the indices of hepatotoxicity"}, {"measurement": "BSP", "setting": "[2]; [8]", "result": "10.6 ± 4.5", "unit": "mg/dL"}, {"measurement": "p-GPT", "setting": "[2]; [8]", "result": "23 ± 3.7", "unit": "Karmen unit"}, {"measurement": "excretion of biliary salt", "setting": "[3]; 200 mg/kg oral, 1 hour after treatment, before treatment = 100", "result": "108 ± 15"}, {"measurement": "excretion of biliary salt", "setting": "[3]; 200 mg/kg oral, 2 hours after treatment, before treatment = 100", "result": "132 ± 25"}, {"measurement": "excretion of biliary salt", "setting": "[3]; 200 mg/kg oral, 3 hours after treatment, before treatment = 100", "result": "138 ± 27"}, {"measurement": "excretion of biliary salt", "setting": "[3]; 200 mg/kg oral, 4 hours after treatment, before treatment = 100", "result": "117 ± 27"}, {"measurement": "excretion of biliary salt", "setting": "[3]; 200 mg/kg oral, 5 hours after treatment, before treatment = 100", "result": "90 ± 21"}, {"measurement": "amount of total biliary salts excreted relative to control", "setting": "[3]; [9]", "result": 1.7, "unit": "times"}, {"measurement": "quantity of total excreted bile relative to control", "setting": "[3]; [9]", "result": 1.2, "unit": "times"}, {"measurement": "excretion of biliary salt", "setting": "[3]; before treatment, 1 hour, taken as 100 (normalisation)", "result": 100}, {"measurement": "Triglyceride in the liver", "setting": "[4]", "result": "4.4 ± 0.68", "unit": "mg/g"}, {"measurement": "p-GPT", "setting": "[4]", "result": "51 ± 15", "unit": "Karmen unit"}, {"measurement": "p-GOT activity", "setting": "[5]; 1 week", "result": "562 ± 119", "unit": "Karmen unit"}, {"measurement": "p-GPT activity", "setting": "[5]; 1 week", "result": "169 ± 30", "unit": "Karmen unit"}, {"measurement": "p-GOT activity", "setting": "[5]; 2 weeks", "result": "182 ± 43", "unit": "Karmen unit"}, {"measurement": "p-GPT activity", "setting": "[5]; 2 weeks", "result": "43 ± 11", "unit": "Karmen unit"}, {"measurement": "p-GOT activity", "setting": "[5]; 4 weeks", "result": "142 ± 48", "unit": "Karmen unit"}, {"measurement": "p-GPT activity", "setting": "[5]; 4 weeks", "result": "45 ± 23", "unit": "Karmen unit"}, {"measurement": "p-GOT activity", "setting": "[5]; 8 weeks", "result": "120 ± 32", "unit": "Karmen unit"}, {"measurement": "p-GPT activity", "setting": "[5]; 8 weeks", "result": "33 ± 20", "unit": "Karmen unit"}, {"measurement": "p-GPT", "setting": "[6]", "result": "58 ± 15", "unit": "Karmen unit"}, {"measurement": "Total lipid", "setting": "[7]; [10]", "result": "78.6 ± 16.8", "unit": "mg/g-liver"}, {"measurement": "Triglyceride", "setting": "[7]; [10]", "result": "37.6 ± 8.5", "unit": "mg/g-liver"}, {"measurement": "Total lipid", "setting": "[7]; 250 mg/kg, 10 days", "result": "64.1 ± 10.2", "unit": "mg/g-liver"}, {"measurement": "Triglyceride", "setting": "[7]; 250 mg/kg, 10 days", "result": "23.6 ± 7.0", "unit": "mg/g-liver"}]}]}
